Values of other authors in patent publication US20220105150A1, “AMPHIPATHIC ALPHA-HELICAL ANTIMICROBIAL PEPTIDES TREAT INFECTIONS BY GRAM-NEGATIVE PATHOGENS” (priority 2019, published 2022).

What was measured:
[1] = test system: A. baumannii strains from JMI Laboratories; settings: 20 A. baumannii isolates from JMI Laboratories; cited from earlier work
[2] = test system: Acinetobacter baumannii strains resistant to Polymyxin B and Colistin; settings: results provided by MERCK, cited from earlier work; for MICGM: geometric mean over seven strains; for MIC MB9941: strain MB9941; for MIC MB9949: strain MB9949; for MIC MB9951: strain MB9951; for MIC MB9952: strain MB9952; for MIC MB9953: strain MB9953; for MIC MB9955: strain MB9955; for MIC MB9963: strain MB9963

C[C@@H](O)[C@H]1C(=O)N2C(C(=O)O)=C(S[C@@H]3CN[C@H](CNS(N)(=O)=O)C3)[C@H](C)[C@H]12 [Doripenem]
number of resistant isolates out of the number of isolates screened [1]: 17/20

C[C@@H](O)[C@H]1C(=O)N2C(C(=O)O)=C(S[C@@H]3CN[C@H](C(=O)N(C)C)C3)[C@H](C)[C@H]12 [Meropenem]
number of resistant isolates out of the number of isolates screened [1]: 17/20

NC[C@H]1O[C@H](O[C@H]2[C@H](O)[C@@H](O[C@H]3O[C@H](CO)[C@@H](O)[C@H](N)[C@H]3O)[C@H](N)C[C@@H]2N)[C@H](N)C[C@@H]1O [Tobramycin]
number of resistant isolates out of the number of isolates screened [1]: 18/20

Ampicillin-sulbactam
number of resistant isolates out of the number of isolates screened [1]: 17/20

Ceftazidime-avibactam
number of resistant isolates out of the number of isolates screened [1]: 17/20

Colistin
MICGM [2]: >28 µM
MIC MB9941 [2]: >28 µM
MIC MB9949 [2]: >28 µM
MIC MB9951 [2]: >28 µM
MIC MB9952 [2]: >28 µM
MIC MB9953 [2]: >28 µM
MIC MB9955 [2]: >28 µM
MIC MB9963 [2]: >28 µM
number of resistant isolates out of the number of isolates screened [1]: 10/20

Gentamicin
number of resistant isolates out of the number of isolates screened [1]: 18/20

Piperacillin-tazobactam
number of resistant isolates out of the number of isolates screened [1]: 19/20

Polymyxin B
MICGM [2]: >25 µM
MIC MB9941 [2]: >25 µM
MIC MB9949 [2]: >25 µM
MIC MB9951 [2]: >25 µM
MIC MB9952 [2]: >25 µM
MIC MB9953 [2]: >25 µM
MIC MB9955 [2]: >25 µM
MIC MB9963 [2]: >25 µM
